The results in this text go back to PubChem BioAssay AID652001 (The Scripps Research Institute Molecular Screening Center, 2013).

The target of experiment [1] is LYPLA2. The experiment can be described thus: LYPLA2 enzyme kinetics with inhibitors – biochemical, substrate-based fluorescence, Ki, Km, Vmax, late-stage follow-up (AID 652001). As to conditions: recombinant LYPLA2, resorufin acetate hydrolysis fluorescence, Ki from Cheng-Prusoff.
Experiment [2] addresses Acyl-protein thioesterase 2 (Homo sapiens) (UniProt O95372). Described as above. The following applies: recombinant LYPLA2, resorufin acetate hydrolysis fluorescence.

Chain of Acyl-protein thioesterase 2 (Homo sapiens) (O95372 whole entry, looked up): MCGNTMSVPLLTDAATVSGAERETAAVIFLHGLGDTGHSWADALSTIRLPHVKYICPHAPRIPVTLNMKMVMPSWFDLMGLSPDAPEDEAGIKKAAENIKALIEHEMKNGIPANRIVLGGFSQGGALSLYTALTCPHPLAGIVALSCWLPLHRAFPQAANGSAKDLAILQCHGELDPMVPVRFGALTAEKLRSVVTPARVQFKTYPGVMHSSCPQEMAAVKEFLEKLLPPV

As for `COc1ccc(N2CCN(C(=O)c3cc4c(s3)-c3ccccc3S(=O)(=O)C4)CC2)cc1`, the Ki in experiment [1] was 230 nM. Further, in experiment [2], the IC50 came to 510 nM.

As usually defined, the Ki is a dissociation constant, usually derived from enzyme kinetics or from competition with a known ligand. A word on the IC50: it is the point on the concentration scale where inhibition reaches its midpoint.
